This assay deals with Female CFLP mice. Nature of the assay: Hypoglycaemic activity: oral compound, then subcutaneous glucose load in fasted mice; area under the blood glucose curve over 2 hours compared with water controls. Format: in vivo. To be noted: Mus musculus, mice fasted for 24 hours, glucose 1g/kg s.c. 30 minutes after dosing, 2 hour AUC vs water controls, read-out: % reduction in area under blood glucose curve; for inhibition in vivo at 3 µmol/kg: dose 3 µmol/Kg p.o. The method, then:
Female CFLP mice, weighing approximately 25g, were fasted for 24 hours prior to the study. The compounds under study were administered orally as an aqueous solution to each of 6 mice. 30 minutes later a blood sample (20ul) was obtained from the tail for the analysis of blood glucose. Immediately after taking this blood sample, glucose (lg/kg body weight) was administered subcutaneously to each mouse. 6 mice were -given water as a control. Blood samples were then obtained from each mouse at 30 minute intervals for 120 minutes. Compounds that produced a significant (p>0.05) reduction of blood glucose, compared with control mice given water, at any time interval were considered active. The area under the blood glucose curve over the 2 hour period after the administration of the glucose was calculated for each compound and compared with the value for control animals.

Where a name gives a salt, the structure may show the parent alone.

Turning to `C[C@H](Cc1ccc(OCC(=O)NCCNC(=O)COc2ccc(C[C@@H](C)NC[C@H](O)c3cccc(Cl)c3)cc2)cc1)NC[C@H](O)c1cccc(Cl)c1` [Example 1, [R,R,R,R]-N,N'-(1,2-Ethanediyl)bis[2-[4-[2-[(2-(3-chlorophenyl)-2-hydroxyethyl)amino]propyl]phenoxy]acetamide]], the inhibition in vivo at 12.5 µmol/kg (dose 12.5 µmol/Kg p.o.) worked out at 43%. In the case of `C[C@H](Cc1ccc(OCCCCCCOc2ccc(C[C@@H](C)NC[C@H](O)c3cccc(Cl)c3)cc2)cc1)NC[C@H](O)c1cccc(Cl)c1` [Example 3, [R,R,R,R]-α,α'[1,6-Hexanediylbis[oxy-4,1-phenylene(1-methyl-2,1-ethanediyl)iminomethylene]]bis[3-chlorobenzenemethanol], dihydrochloride], where the note is “dose 1.0 µmol/Kg p.o.”, the inhibition in vivo at 1 µmol/kg was determined as 55%.

With `C[C@H](Cc1ccc(S(=O)(=O)c2ccc(C[C@@H](C)NC[C@H](O)c3cccc(Cl)c3)cc2)cc1)NC[C@H](O)c1cccc(Cl)c1` [Example 6, [R,R,R,R]-α,α'-[Sulphonylbis[4,1-phenylene(1-methyl-2,1-ethanediyl)iminomethylene]]bis|3-chlorobenzenemethanol] dihydrochloride], the inhibition in vivo at 3 µmol/kg worked out at 30%. In the case of `C[C@H](Cc1ccc(C(O)(CO)c2ccc(C[C@@H](C)NC[C@H](O)c3cccc(Cl)c3)cc2)cc1)NC[C@H](O)c1cccc(Cl)c1` [Example 7, [R,R,R,R]-1,1-di[4-[2-[[2-(3-chlorophenyl)-2-hydroxyethyl]amino]propyl]phenyl]-1,2-ethanediol, dihydrochloride], the inhibition in vivo at 2.5 µmol/kg (dose 2.5 µmol/Kg p.o.) is 17%.

On to `C[C@H](Cc1ccc(OCCCCCCCCCOc2ccc(C[C@@H](C)NC[C@H](O)c3cccc(Cl)c3)cc2)cc1)NC[C@H](O)c1cccc(Cl)c1` [Example 13, [R,R,R,R,]-α,α'[1,9-Nonanediylbis[oxy-4,1-phenylene (1-methyl-2,1-ethanediyl)iminomethylene]]bis[3-chlorobenzenemethanol], dihydrochloride], for which the inhibition in vivo at 3 µmol/kg came out at 34%. Same read-out and setting: to `C[C@H](Cc1ccc(CNCCCCNCc2ccc(C[C@@H](C)NC[C@H](O)c3cccc(Cl)c3)cc2)cc1)NC[C@H](O)c1cccc(Cl)c1` [Example 16, [R,R,R,R]-α,α'-[1,4-Butanediylbis[iminomethylene-4,1-phenylene(1-methyl-2,1-ethanediyl)iminomethylene]]bis [3-chlorobenzenemethanol, tetrahydrochloride] belongs 8%. On to `C[C@H](Cc1ccc(CCCCCCc2ccc(C[C@@H](C)NC[C@H](O)c3cccc(Cl)c3)cc2)cc1)NC[C@H](O)c1cccc(Cl)c1` [Example 19, [R,R,R,R]-α,α'-[1,6-Hexanediylbis[4,1-phenylene (1-methyl-2,1-ethanediyl)iminomethylene]] bis[3-chlorobenzenemethanol], dihydrochloride], for which the inhibition in vivo at 10 µmol/kg (dose 10 µmol/Kg p.o.) came out at 11%.

With `C[C@H](Cc1ccc(OCCCCCOc2ccc(C[C@@H](C)NC[C@H](O)c3cccc(Cl)c3)cc2)cc1)NC[C@H](O)c1cccc(Cl)c1` [Example 20, [R,R,R,R]-α,α'-[1,5-Pentanediylbis[oxy-4,1-phenylene (1-methyl-2,1-ethanediyl)iminomethylene]] bis[3-chlorobenzenemethanol], dihydrochloride], the inhibition in vivo at 0.1 µmol/kg (dose 0.1 µmol/Kg p.o.) was 51%.
